Laboratory results reported in EP0847397B1, “WATER-SOLUBLE C-RING ANALOGUES OF 20 (S)-CAMPTOTHECIN” (DR. REDDY'S RESEARCH FOUNDATION, priority 1996, dated 1997).

Key:
[1] = test system: NCI's 60 human tumor cell line assay; assay: cells; format: cell-based; conditions: 60 cell, 48 h, read-out: IC50 (mean GI50 against NCI's 60 human tumor cell line assay)
[2] = test system: MOLT 4; assay: NCI in vitro 60 human tumor cell line assay; format: cell-based; conditions: MOLT-4, 48 h, read-out: Total Growth Inhibition (TGI)
Procedure: (§1) Each test compound was screened against a battery of 60 human cell lines obtained from eight organs. In a typical procedure, the cell suspensions that were diluted according to the particular cell type and the expected target cell density (5000-40,000 cells per well based on cell growth characteristics) were added into 96-well microtiter plates. Inoculates were allowed a preincubation period of 24h at 37°C. for stabilization. Dilutions at twice the intended test concentrations were added at time zero in 100-µl aliquots to microtiter plate wells. Usually test compounds were evaluated at five 10-fold dilutions. The highest well concentration used in the test is 10^-4M. The cells are then incubated in the presence of drug (the test compound) for further 48h in 5% CO2 atmosphere and 100% humidity. At the end of this time, the adherent cells are fixed to the plate by means of trichloroacetic acid, and after a number of washes, the cell layer is treated with the protein stain Sulforhodamine B. The optical density which is proportional to protein mass, is then read by automated spectrophotometric plate readers at a wavelength of 515 nm. Readings are transferred to a microcomputer and final reports are generated using especially developed software.

[3] = test system: SF 295; assay: NCI in vitro 60 human tumor cell line assay; format: cell-based; conditions: SF-295, 48 h, read-out: Total Growth Inhibition (TGI)
Procedure: as §1

[4] = test system: U 251; assay: NCI in vitro 60 human tumor cell line assay; format: cell-based; conditions: U-251, 48 h, read-out: Total Growth Inhibition (TGI)
Procedure: as §1

[5] = test system: MCF 7; assay: NCI in vitro 60 human tumor cell line assay; format: cell-based; conditions: MCF7, 48 h, read-out: Total Growth Inhibition (TGI)
Procedure: as §1

[6] = test system: HT 29; assay: NCI in vitro 60 human tumor cell line assay; format: cell-based; conditions: Homo sapiens, HT-29, 48 h, read-out: Total Growth Inhibition (TGI)
Procedure: as §1

[7] = result in words, compared with 20(S)-camptothecin; cited from earlier work
[8] = test system: H 460; assay: NCI in vitro 60 human tumor cell line assay; format: cell-based; conditions: Homo sapiens, NCI-H460, 48 h, read-out: Total Growth Inhibition (TGI)
Procedure: as §1

[9] = test system: HCC 2998; assay: NCI in vitro 60 human tumor cell line assay; format: cell-based; conditions: Homo sapiens, HCC 2998, 48 h, read-out: Total Growth Inhibition (TGI)
Procedure: as §1

[10] = test system: HOP 62; assay: NCI in vitro 60 human tumor cell line assay; format: cell-based; conditions: HOP-62, 48 h, read-out: Total Growth Inhibition (TGI)
[11] = test system: H 226; assay: NCI in vitro 60 human tumor cell line assay; format: cell-based; conditions: NCI-H226, 48 h, read-out: Total Growth Inhibition (TGI)
Procedure: as §1

[12] = test system: H 23; assay: NCI in vitro 60 human tumor cell line assay; format: cell-based; conditions: NCI-H23, 48 h, read-out: Total Growth Inhibition (TGI)
Procedure: as §1

[13] = test system: COLO 205; assay: NCI in vitro 60 human tumor cell line assay; format: cell-based; conditions: COLO 205, 48 h, read-out: Total Growth Inhibition (TGI)
Procedure: as §1

[14] = test system: KM 12; assay: NCI in vitro 60 human tumor cell line assay; format: cell-based; conditions: KM12, 48 h, read-out: Total Growth Inhibition (TGI)
Procedure: as §1

[15] = NCI in vitro 60 human tumor cell line assay; format: cell-based; conditions: 48 h, read-out: Total Growth Inhibition (TGI)
Procedure: as §1

[16] = test system: MCF7 / ADR / RES; assay: NCI in vitro 60 human tumor cell line assay; format: cell-based; conditions: 48 h, read-out: Total Growth Inhibition (TGI)
Procedure: as §1

[17] = test system: H 322M; assay: NCI in vitro 60 human tumor cell line assay; format: cell-based; conditions: NCI-H322M, 48 h, read-out: Total Growth Inhibition (TGI)
Procedure: as §1

[18] = test system: HCT 15; assay: NCI in vitro 60 human tumor cell line assay; format: cell-based; conditions: HCT-15, 48 h, read-out: Total Growth Inhibition (TGI)
Procedure: as §1

[19] = test system: UO 31; assay: NCI in vitro 60 human tumor cell line assay; format: cell-based; conditions: UO-31, 48 h, read-out: Total Growth Inhibition (TGI)
Procedure: as §1

[20] = test system: HOP 92; assay: NCI in vitro 60 human tumor cell line assay; format: cell-based; conditions: HOP-92, 48 h, read-out: Total Growth Inhibition (TGI)
[21] = test system: H 522; assay: NCI in vitro 60 human tumor cell line assay; format: cell-based; conditions: NCI-H522, 48 h, read-out: Total Growth Inhibition (TGI)
Procedure: as §1

[22] = test system: HCT 116; assay: NCI in vitro 60 human tumor cell line assay; format: cell-based; conditions: HCT-116, 48 h, read-out: Total Growth Inhibition (TGI)
[23] = test system: MCF 7/ ADR; assay: NCI in vitro 60 human tumor cell line assay; format: cell-based; conditions: Homo sapiens, NCI/ADR-RES, 48 h, read-out: Total Growth Inhibition (TGI)
Procedure: as §1

[24] = test system: MDA-MB-435; assay: NCI in vitro 60 human tumor cell line assay; format: cell-based; conditions: MDA-MB-435, 48 h, read-out: Total Growth Inhibition (TGI)
[25] = test system: MDA-N; assay: NCI in vitro 60 human tumor cell line assay; format: cell-based; conditions: BREAST, 48h, read-out: Total Growth Inhibition (TGI)
Procedure: (§2) Each test compound was screened against a battery of 60 human cell lines obtained from eight organs. In a typical procedure, the cell suspensions that were diluted according to the particular cell type and the expected target cell density (5000-40,000 cells per well based on cell growth characteristics) were added into 96-well microtiter plates. Inoculates were allowed a preincubation period of 24h at 37°C. for stabilization. Dilutions at twice the intended test concentrations were added at time zero in 100-µl aliquots to microtiter plate wells. Usually test compounds were evaluated at five 10-fold dilutions. The highest well concentration used in the test is 10^-4M. The cells are then incubated in the presence of drug (the test compound) for further 48h in 5% CO2 atmosphere and 100% humidity. At the end of this time, the adherent cells are fixed to the plate by means of trichloroacetic acid, and after a number of washes, the cell layer is treated with the protein stain Sulforhodamine B. The optical density which is proportional to protein mass, is then read by automated spectrophotometric plate readers at a wavelength of 515 nm.

[26] = test system: BT 549; assay: NCI in vitro 60 human tumor cell line assay; format: cell-based; conditions: BT-549, 48 h, read-out: Total Growth Inhibition (TGI)
Procedure: as §1

[27] = test system: T 47D; assay: NCI in vitro 60 human tumor cell line assay; format: cell-based; conditions: T47D, 48 h, read-out: Total Growth Inhibition (TGI)
Procedure: as §1

[28] = test system: 786-O; assay: NCI in vitro 60 human tumor cell line assay; format: cell-based; conditions: 786-0, 48 h, read-out: Total Growth Inhibition (TGI)
Procedure: as §2

[29] = test system: A 498; assay: NCI in vitro 60 human tumor cell line assay; format: cell-based; conditions: A498, 48 h, read-out: Total Growth Inhibition (TGI)
Procedure: as §1

[30] = test system: ACHN; assay: NCI in vitro 60 human tumor cell line assay; format: cell-based; conditions: 48 h, read-out: Total Growth Inhibition (TGI)
Procedure: as §1

[31] = test system: CAKI; assay: NCI in vitro 60 human tumor cell line assay; format: cell-based; conditions: 48 h, read-out: Total Growth Inhibition (TGI)
Procedure: as §1

[32] = test system: RXF 393; assay: NCI in vitro 60 human tumor cell line assay; format: cell-based; conditions: RXF 393, 48 h, read-out: Total Growth Inhibition (TGI)
Procedure: as §1

[33] = test system: SN12C; assay: NCI in vitro 60 human tumor cell line assay; format: cell-based; conditions: 48 h, read-out: Total Growth Inhibition (TGI)
Procedure: as §1

CC[C@@]1(O)C(=O)OCc2c1cc1n(c2=O)C(OCC(F)(F)F)c2cc3ccccc3nc2-1 (some centres unmarked) [Example 25, 5-trifluoroethoxycamptothecin]
mean GI50 [1]: 1.82 µM | IC (TGI) [2]: 3 µM | IC (TGI) [3]: 2.15 µM | IC (TGI) [4]: 3.57 µM | IC (TGI) [5]: 9.2 µM | IC (TGI) [6]: 7.9 µM

5-hydroxymethyl camptothecin
anti-tumor activity [7]: reduced anti-tumor activity

CC[C@@]1(O)C(=O)OCc2c1cc1n(c2=O)C(OCCOC)c2cc3ccccc3nc2-1 (some centres unmarked) [Example 43, 5-(2'-methoxyethoxy)camptothecin]
mean GI50 [1]: 2.23 µM | IC (TGI) [5]: 17.8 µM | IC (TGI) [6]: 18.9 µM | IC (TGI) [8]: 14.2 µM | IC (TGI) [9]: 23.2 µM | IC (TGI) [10]: 3.92 µM | IC (TGI) [11]: 6.89 µM | IC (TGI) [12]: 2.52 µM | IC (TGI) [13]: 37.3 µM | IC (TGI) [14]: 41.9 µM | IC (TGI) [15]: 23.6 µM | IC (TGI) [16]: 9.3 µM

CC[C@@]1(O)C(=O)OCc2c1cc1n(c2=O)C(OCC(F)(F)F)c2cc3c([N+](=O)[O-])cccc3nc2-1 (some centres unmarked) [Example 28, 9-Nitro-5-trifluoroethoxycamptothecin]
mean GI50 [1]: 0.46 µM | IC (TGI) [6]: 7.94 µM | IC (TGI) [8]: 1.22 µM | IC (TGI) [17]: 30.2 µM | IC (TGI) [9]: 7.65 µM | IC (TGI) [18]: > 30 µM | IC (TGI) [19]: 1.23 µM | IC (TGI) [20]: 8.44 µM | IC (TGI) [11]: 4.3 µM | IC (TGI) [12]: 0.76 µM | IC (TGI) [21]: 13 µM | IC (TGI) [13]: 9.48 µM | IC (TGI) [22]: 8.01 µM | IC (TGI) [14]: 27.4 µM | IC (TGI) [23]: 1.21 µM | IC (TGI) [24]: 11.4 µM | IC (TGI) [25]: 13.4 µM | IC (TGI) [26]: 32 µM | IC (TGI) [27]: 1.09 µM | IC (TGI) [28]: 0.85 µM | IC (TGI) [29]: 1.76 µM | IC (TGI) [30]: 0.37 µM | IC (TGI) [31]: 0.75 µM | IC (TGI) [32]: 15.9 µM | IC (TGI) [33]: 2.31 µM
